# Source: PubChem BioAssay (NCI)
#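 These data come from cells grown in 96-well plates and exposed to compound for 48 hours at five concentrations. GI50 = concentration required for 50% inhibition of growth. TGI denotes the concentration required for complete inhibition of growth.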
# Tested on: HOP-62 NSCLC
# Assay: NCI tumour cell line growth inhibition, 48 h
Compound,GI50 [µM],TGI [µM]
COc1ccc(C2=Nc3c/c(=C\c4c(O)[nH]c5cc(Cl)ccc45)ccc3=N2)cc1,12.4,29
CN=C(N)N/N=C(\C)c1ccc2c(c1)Cc1ccccc1-2,1.66,3.2
COc1ccc(NC(=O)C2C(=O)N(c3ccc(OC)cc3)C(=O)/C2=N\NC(N)=O)cc1 (configuration not stated),–,32.9
C/C(=N\NS(=O)(=O)c1ccc([N+](=O)[O-])cc1)c1ccc[n+]([O-])n1,–,4.7
CC(C)(C)Sc1nnc(SC(C)(C)C)c2c(=O)[nH]nc(SC(C)(C)C)c12,–,27
CCCCNC1=C(C(=O)OCC)/C(=N/NC(=O)c2ccccc2O)CO1,–,> 100
N#CC(C(=O)CCCC(=O)Nc1ccc(Cl)cc1Cl)c1ccc(Cl)cc1 (configuration not stated),–,> 100
O=CCCCC(Sc1ccccc1)Sc1ccccc1,–,> 100
Nc1ccn(C2OC(C(OC3OC(CO)C(O)C(N)C3O)C(O)C(O)C(O)C(O)CO)C(N)C(O)C2O)c(=O)n1 (configuration not stated),–,> 100
COc1ccc(C)cc1C1CCC(=O)O1 (configuration not stated),–,> 100
Cc1ccc2nc(NC(=O)C(=O)CC(=O)c3cccc4ccccc34)sc2c1,–,56.9
O=C1CCC(=O)c2sccc2N1,–,> 100
O=C(c1ccc2ccccc2c1)c1c(C(F)(F)F)n([O-])c2ccc(F)cc2[n+]1=O,1.91,3.39
CCCCCCCCCCCCCCCCCC(=O)NCC(COP(=O)(O)O)OCC (configuration not stated),–,54.5
COc1ccc2c(c1)/C(=N/OC(C)=O)c1c-2cnc2ccccc12,20.8,46.6
Cn1nc(-c2ccccc2)c(C(=O)/C=C/c2ccc(Cl)cc2)c(N2CCCC2)c1=O,–,6.93
Cc1cc2nc(-c3c(F)cccc3Cl)n(Cc3c(F)cccc3Cl)c2cc1C,13.9,29.1
O=C1C=Cc2ncccc2C1=O,–,> 82.9
C/C(CC(=O)Nc1cccc([N+](=O)[O-])c1)=N\NC(=O)CC#N,–,> 100
[CH3][Sn]1([CH3])[O]CC(COc2cc(Cl)c(Cl)cc2Cl)[O]1 (configuration not stated),> 100,> 100
CCc1cc(Cc2ccc(C)c(NC(=O)C(=O)C3C(=O)NC(=O)NC3=O)c2CC)cc(C)c1NC(=O)C(=O)C1C(=O)NC(=O)NC1=O,–,> 100
CC(=O)OC(=O)O/C=C\CCl,–,> 100
O=C(Nc1nc2ccccc2s1)c1cc(-c2ccc(F)cc2)n2nc(-c3ccccc3)cc2n1,2.24,7.02
CC(=O)c1c2c(cc3c1CC1(C3)Cc3cc4c(c(C(=O)O)c3C1)CCC4)CCC2 (configuration not stated),–,> 100
C/C(=N/O)c1ccc(Nc2cc(-n3ccnc3)c3ccccc3n2)cc1,53.2,> 100
Cc1ccc(/C=N/NS(=O)(=O)c2ccccc2)c(C)c1,–,> 100
C#CCOCn1cnc2ncnc(N)c21,–,> 100
Cc1noc(/N=C2\C=C(Nc3onc(C)c3C)C(=O)c3ccccc32)c1C,–,> 100

# Tested on: HCT-116 colon
# Assay: NCI tumour cell line growth inhibition, 48 h
Compound,TGI [µM],GI50 [µM]
CC1=C(N2CC2)C(=O)c2ccccc2C1=O,12,–
O=S1(=O)c2ccccc2N=C(c2ccccc2Cl)CC1c1ccc(F)cc1 (configuration not stated),22.9,–
CCN(CC)Cc1cc(Nc2c3ccccc3nc3cc(Cl)ccc23)ccc1O,2.67,0.967
CC1=CC(=O)NP(=O)(C23CC4CC(CC(C4)C2)C3)N1 (configuration not stated),> 100,–
Oc1ccc(Cl)cc1/C=N\NC(=S)N/N=C/c1cc(Cl)ccc1O,18.5,1.42
O=c1[nH]cc(C(F)(C(F)(F)F)C(F)(F)F)c(=O)[nH]1,> 100,–
COc1ccc2c(c1)c1c3n2CCNN=C3CCC1,> 100,–
CC(=O)[C-](C(C)=O)c1ccccc1.CC(=O)[C-](C(C)=O)c1ccccc1.CC(=O)[C-](C(C)=O)c1ccccc1.[Cl-].[Zr+4],> 100,> 100
CC(C)N1C(C)[C@@H](c2ccccc2)O[P@]1(=O)CC1=CCCCC1 (some centres not stated),> 100,–
COc1ccc(C2=Nc3c/c(=C\c4c(O)[nH]c5cc(Cl)ccc45)ccc3=N2)cc1,8.8,2.38
CN=C(N)N/N=C(\C)c1ccc2c(c1)Cc1ccccc1-2,2.74,1.43
COC(=O)C(=O)C(C(=O)C(=O)Nc1cc(Cl)c(Cl)cc1Cl)c1nc2ccc([N+](=O)[O-])cc2[nH]c1=O (configuration not stated),> 100,–
COc1ccc(NC(=O)C2C(=O)N(c3ccc(OC)cc3)C(=O)/C2=N\NC(N)=O)cc1 (configuration not stated),46.8,–
C/C(=N\NS(=O)(=O)c1ccc([N+](=O)[O-])cc1)c1ccc[n+]([O-])n1,3.9,–
S=c1c2ccccc2c(=S)n2n1CC=CC2,> 100,–
CC(C)(C)Sc1nnc(SC(C)(C)C)c2c(=O)[nH]nc(SC(C)(C)C)c12,15.9,–
CCCCNC1=C(C(=O)OCC)/C(=N/NC(=O)c2ccccc2O)CO1,> 100,–
N#CC(C(=O)CCCC(=O)Nc1ccc(Cl)cc1Cl)c1ccc(Cl)cc1 (configuration not stated),> 100,–
O=CCCCC(Sc1ccccc1)Sc1ccccc1,28.4,–
Nc1ccn(C2OC(C(OC3OC(CO)C(O)C(N)C3O)C(O)C(O)C(O)C(O)CO)C(N)C(O)C2O)c(=O)n1 (configuration not stated),> 100,–

Compound,TGI [µM],GI50 [µM]
COc1ccc(C)cc1C1CCC(=O)O1 (configuration not stated),> 100,–
O=C1CCC(=O)c2sccc2N1,> 100,–
O=C(c1ccc2ccccc2c1)c1c(C(F)(F)F)n([O-])c2ccc(F)cc2[n+]1=O,2.97,1.5
CC(C(N)=O)N(C)C(=O)c1cnc2ccccc2c1 (configuration not stated),> 100,–
CCCCCCCCCCCCCCCCCC(=O)NCC(COP(=O)(O)O)OCC (configuration not stated),> 100,–
COc1ccc2c(c1)/C(=N/OC(C)=O)c1c-2cnc2ccccc12,48.1,21
Cn1nc(-c2ccccc2)c(C(=O)/C=C/c2ccc(Cl)cc2)c(N2CCCC2)c1=O,8.11,–
Cc1cc2nc(-c3c(F)cccc3Cl)n(Cc3c(F)cccc3Cl)c2cc1C,20.3,6.43
O=C1C=Cc2ncccc2C1=O,31.1,–
C/C(CC(=O)Nc1cccc([N+](=O)[O-])c1)=N\NC(=O)CC#N,> 100,–
[CH3][Sn]1([CH3])[O]CC(COc2cc(Cl)c(Cl)cc2Cl)[O]1 (configuration not stated),> 100,73.7
O=C(/C=C/c1ccccc1)CCC1C(=O)NC(=S)NC1=O,> 100,–
CCc1cc(Cc2ccc(C)c(NC(=O)C(=O)C3C(=O)NC(=O)NC3=O)c2CC)cc(C)c1NC(=O)C(=O)C1C(=O)NC(=O)NC1=O,> 100,–
CC(=O)OC(=O)O/C=C\CCl,> 100,–
O=C(Nc1nc2ccccc2s1)c1cc(-c2ccc(F)cc2)n2nc(-c3ccccc3)cc2n1,> 100,2.71
CC(=O)c1c2c(cc3c1CC1(C3)Cc3cc4c(c(C(=O)O)c3C1)CCC4)CCC2 (configuration not stated),67.8,–
C/C(=N/O)c1ccc(Nc2cc(-n3ccnc3)c3ccccc3n2)cc1,38.9,14.6
Cc1ccc(/C=N/NS(=O)(=O)c2ccccc2)c(C)c1,> 100,–
C#CCOCn1cnc2ncnc(N)c21,> 100,–
Cc1noc(/N=C2\C=C(Nc3onc(C)c3C)C(=O)c3ccccc32)c1C,> 100,–

# Tested on: HS 578T breast
# Assay: NCI tumour cell line growth inhibition, 48 h
Compound,TGI [µM],GI50 [µM]
CC1=C(N2CC2)C(=O)c2ccccc2C1=O,4.89,–
CCN(CC)Cc1cc(Nc2c3ccccc3nc3cc(Cl)ccc23)ccc1O,6.24,2.26
Oc1ccc(Cl)cc1/C=N\NC(=S)N/N=C/c1cc(Cl)ccc1O,> 100,8.37
COc1ccc(C2=Nc3c/c(=C\c4c(O)[nH]c5cc(Cl)ccc45)ccc3=N2)cc1,43.1,10.6
CN=C(N)N/N=C(\C)c1ccc2c(c1)Cc1ccccc1-2,–,3.17
Nc1ccn(C2OC(C(OC3OC(CO)C(O)C(N)C3O)C(O)C(O)C(O)C(O)CO)C(N)C(O)C2O)c(=O)n1 (configuration not stated),7.27,–
O=C(c1ccc2ccccc2c1)c1c(C(F)(F)F)n([O-])c2ccc(F)cc2[n+]1=O,4.77,1.98
COc1ccc2c(c1)/C(=N/OC(C)=O)c1c-2cnc2ccccc12,> 100,39.8
Cc1cc2nc(-c3c(F)cccc3Cl)n(Cc3c(F)cccc3Cl)c2cc1C,48.4,15.8
O=C(/C=C/c1ccccc1)CCC1C(=O)NC(=S)NC1=O,> 100,–
O=C(Nc1nc2ccccc2s1)c1cc(-c2ccc(F)cc2)n2nc(-c3ccccc3)cc2n1,8.64,2.29
C/C(=N/O)c1ccc(Nc2cc(-n3ccnc3)c3ccccc3n2)cc1,> 100,12.9
